Experimental data taken from US20210113501A1, “METHOD OF ADMINISTERING BETA-HYDROXY-BETA-METHYLBUTYRATE (HMB)” (Metabolic Technologies, Inc., priority 2009, published 2021).

Test: Study 2 blood chemistry
Assay type: in vivo, human
Conditions: for Aspartate Aminotransferase / Gamma-glutamyl: in U/L (unit assumed)
Experimental: Study 2 design. Study 2 was conducted similar to study 1 with the following modifications. In study 2, plasma levels of HMB were measured for 1440 min (24 h) and total urine collection was also performed for measurement of urinary HMB excretion during this period. After the 180 min blood sample, the subjects were allowed to leave the laboratory and were instructed to return to the laboratory for additional blood samples at 360, 720, and 1440 min after the ingestion of the supplement. As in study 1, each subject took each of the treatments with at least a one week washout period between treatments. Samples were again stored frozen at −70° C. for analysis of plasma and urinary HMB concentrations. Pre-ingestion, 180 min and 1440 min blood samples were again assayed for the same measurements already for study 1. Subjects were provided with a standardized lunch after the 180 min blood sampling and instructed to eat this at approximately 240 min post ingestion. Following the 720 min blood sample, subjects were instructed to eat a normal evening meal before 10 pm. Subjects reported back to the laboratory the following morning for the fasted 1440 min blood sample. A urine collection container was provided and subjects collected all urine produced during the experimental 24 h experimental period. The urine was stored refrigerated when not being collected. Urine volumes were measured and samples of the total urine collection were taken and stored frozen at −70° C. until analyzed for HMB.
The data were analyzed using a crossover design with Proc GLM in SAS. (45) For the timed sampling of plasma HMB a repeated measures polynomial model was used. The model included subject, order, and treatment main effects and time by treatment interaction where appropriate. For other parameters Proc GLM was also used with subject, order, and treatment main effects and the p values are reported for the treatment main effect. Statistical significance was determined for p<0.05 and a trend was determined for 0.05<p<0.10.

## CC(C)(O)CC(=O)O [HMB-Acid Gel Swallow, 3-hydroxy-3-methylbutyric acid]
After (24 h)
  A:G Ratio: 1.8 ± 0.1
  Alanine Aminotransferase: 16.4 ± 1.7 IU/L
  Albumin: 4.3 ± 0.1 g/dL
  Alkaline Phosphatase: 74.1 ± 7.6 IU/L
  Blood Urea Nitrogen: 13.9 ± 1.4 mg/dL
  CO2: 27.8 ± 0.9 mEq/L
  Chloride: 102.8 ± 0.7 mEq/L
  Cholesterol Ratio: 3.2 ± 0.2
  Creatinine: 1.0 ± 0.1 mg/dL
  Direct Bilirubin: 0.1 ± 0.04 mg/dL
  Globulin: 2.4 ± 0.2 g/dL
  Glucose: 79.9 ± 1.9 mg/dL
  HDL: 56.4 ± 2.9 mg/dL
  Iron: 53.8 ± 10.8 µg/dL
  Iron Binding Capacity: 395.1 ± 34.7 µg/dL
  Iron Saturation: 16.9 ± 4.6%
  LDL: 96.1 ± 8.1 mg/dL
  Lactate Dehydrogenase: 136.6 ± 11.6 IU/L
  Phosphorus: 4.5 ± 0.2 mg/dL
  Potassium: 4.7 ± 0.2 mEq/L
  Protein: 6.7 ± 0.2 g/dL
  Sodium: 141.5 ± 0.9 mEq/L
  Total Bilirubin: 0.5 ± 0.1 mg/dL
  Total Cholesterol: 176.9 ± 11.8 mg/dL
  Triglycerides: 121.4 ± 22.7 mg/dL
  UIBC: 335.1 ± 42.1 µg/dL
  Uric Acid: 4.8 ± 0.3 mg/dL
  Aspartate Aminotransferase: 21.3 ± 0.7
  Gamma-glutamyl: 14.0 ± 1.0
Before
  A:G Ratio: 1.9 ± 0.2
  Alanine Aminotransferase: 16.4 ± 1.6 IU/L
  Albumin: 4.1 ± 0.1 g/dL
  Alkaline Phosphatase: 64.8 ± 7.3 IU/L
  Blood Urea Nitrogen: 14.5 ± 1.4 mg/dL
  CO2: 24.8 ± 1.0 mEq/L
  Chloride: 103.1 ± 0.8 mEq/L
  Cholesterol Ratio: 3.2 ± 0.2
  Creatinine: 1.0 ± 0.1 mg/dL
  Direct Bilirubin: 0.1 ± 0.03 mg/dL
  Globulin: 2.3 ± 0.2 g/dL
  Glucose: 74.1 ± 2.0 mg/dL
  HDL: 51.4 ± 2.8 mg/dL
  Iron: 68.0 ± 13.4 µg/dL
  Iron Binding Capacity: 378.6 ± 32.1 µg/dL
  Iron Saturation: 20.3 ± 5.0%
  LDL: 90.8 ± 7.0 mg/dL
  Lactate Dehydrogenase: 155.9 ± 13.9 IU/L
  Phosphorus: 4.2 ± 0.2 mg/dL
  Potassium: 4.1 ± 0.1 mEq/L
  Protein: 6.4 ± 0.1 g/dL
  Sodium: 139.9 ± 0.7 mEq/L
  Total Bilirubin: 0.5 ± 0.1 mg/dL
  Total Cholesterol: 164.6 ± 10.5 mg/dL
  Triglycerides: 112.6 ± 18.4 mg/dL
  UIBC: 310.6 ± 42.4 µg/dL
  Uric Acid: 4.7 ± 0.1 mg/dL
  Aspartate Aminotransferase: 23.3 ± 0.9
  Gamma-glutamyl: 13.3 ± 1.2
Before to After
  A:G Ratio % Change: −2.6%
  Alanine Aminotransferase % Change: 0.0%
  Albumin % Change: 4.5%
  Alkaline Phosphatase % Change: 14.5%
  Aspartate Aminotransferase % Change: −8.6%
  Blood Urea Nitrogen % Change: −4.3%
  CO2 % Change: 12.1%
  Chloride % Change: −0.4%
  Cholesterol Ratio % Change: −2.3%
  Creatinine % Change: −0.6%
  Direct Bilirubin % Change: 6.0%
  Gamma-glutamyl % Change: 5.7%
  Globulin % Change: 6.0%
  Glucose % Change: 7.8%
  HDL % Change: 9.7%
  Iron % Change: −21.0%
  Iron Binding Capacity % Change: 4.4%
  Iron Saturation % Change: −16.7%
  LDL % Change: 5.9%
  Lactate Dehydrogenase % Change: −12.3%
  Phosphorus % Change: 6.2%
  Potassium % Change: 14.0%
  Protein % Change: 5.1%
  Sodium % Change: 1.2%
  Total Bilirubin % Change: 2.6%
  Total Cholesterol % Change: 7.4%
  Triglycerides % Change: 7.8%
  UIBC % Change: 7.9%
  Uric Acid % Change: 1.9%
